System: HACAT cells
Experiment: HACAT cell proliferation, MTT bioassay
Assay type: cell-based
Procedure: HACAT cells were seeded in 96 well plates and cultured for one day in DMEM medium with 10% FBS, then subjected to starvation for one day. After starvation, the cells were treated for three days with various dosages of EGF in serum free media. […] The ED50 was approximately 300 pg/ml.
HACAT cells were seeded in 96 well plates and cultured for one day in DMEM medium with 10% FBS, then subjected to starvation for one day. After starvation, the cells were treated for three days with various dosages of Anti-Aging Cytokine Complex AC (“AC ”), i.e. a mixture comprising EGF, bFGF, IGF-1 and TRX, in serum free media.
FIG. 3A depicts control cells, FIG. 3B cells treated with 0.5 ng/ml EGF, and FIG. 3C cells treated with 0.5 ng/ml of AC.

Question: What does the source list for “EGF: epidermal growth factor, composed of 53 amino acids”?
Answer: ED50 (cell proliferation) (starved one day, treated three days in serum free media): approximately 300 pg/ml; cell proliferation ratio versus untreated controls (three days, serum free media): higher cell proliferation ratios than the untreated controls

From patent US20070224150A1, “Growth factor for hair and skin treatment” (priority 2005, published 2007)
